The source of these data is US20260374739A1, “SMALL MOLECULAR WEIGHT CHEMICAL COMPOUND TO ANTAGONIZE EPH-EPHRIN TETRAMERIZATION AND INHIBIT BIDIRECTIONAL SIGNALING” (THE BOARD OF REGENTS OF THE UNIVERSITY OF TEXAS SYSTEM, priority 2022, published 2026).

The target in this assay is T1, EphrinB2-EphB1 (Homo sapiens, UniProt P54762).
T1 construct: soluble human EphB1-His, EphB2-His, and EphB4-His ectodomains; commercially available human EphrinB1-Fc (EB1), EphrinB2-Fc (EB2), and EphrinB3-Fc (EB3) ectodomain proteins; purchased
T1 sequence (P54762 18-540 limits assumed): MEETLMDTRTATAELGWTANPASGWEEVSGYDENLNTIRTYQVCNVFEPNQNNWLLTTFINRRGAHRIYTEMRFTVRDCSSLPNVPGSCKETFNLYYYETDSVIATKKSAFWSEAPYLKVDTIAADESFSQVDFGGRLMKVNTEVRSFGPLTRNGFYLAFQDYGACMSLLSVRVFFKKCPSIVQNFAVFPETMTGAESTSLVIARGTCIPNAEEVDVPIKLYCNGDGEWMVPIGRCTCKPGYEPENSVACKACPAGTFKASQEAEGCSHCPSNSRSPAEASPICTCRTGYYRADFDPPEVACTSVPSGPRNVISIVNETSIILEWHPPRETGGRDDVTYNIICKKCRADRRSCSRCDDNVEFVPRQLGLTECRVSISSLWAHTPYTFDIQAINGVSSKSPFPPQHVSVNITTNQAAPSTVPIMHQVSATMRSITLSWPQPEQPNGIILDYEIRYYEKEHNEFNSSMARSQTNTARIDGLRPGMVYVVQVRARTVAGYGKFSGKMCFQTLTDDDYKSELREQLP
As to the kind of experiment: Octet, immobilized human EphrinB2 binding to 50 nM soluble human EphB1. The protocol: Studies were conducted to confirm that A20 chemicals can effectively target the human Eph/Ephrin proteins. Octet system was used to first characterize the biophysical interactions of the human B class Eph and Ephrin proteins, and then was tested to assess how A20 may disrupt the interactions. Since the human and rodent proteins are highly conserved, and essentially identical, with EphB2 sharing 99.5% identity between human and mouse, with only 5 of ~1,000 amino acids different, any species-specific differences were not anticipated. Therefore, commercially available human EphrinB1-Fc (EB1), EphrinB2-Fc (EB2), and EphrinB3-Fc (EB3) ectodomain proteins were sparsely immobilized onto biosensors and then exposed to 50 nM of soluble human EphB1-His, EphB2-His, and EphB4-His ectodomains for 800 sec association and 1,000 sec dissociation steps with a total of nine different interactions analyzed. In the absence of A20 chemical, the immobilized human EphrinB proteins bound to their appropriate human EphB target proteins; with EphrinB1 only bound EphB1 and EphB2, EphrinB2 bound all three EphB1, EphB2, and EphB4, and EphrinB3 only bound EphB1 and EphB2 (FIG. 19A-19B).
The Octet studies shown in FIG. 19A-19F, and FIG. 20A-20C, and Table 2 using human proteins involved runs in which 1, 10, and 100 μM concentrations of the A20.2×HCl salt were included to determine how compound would affect binding kinetics. The sensorgrams for immobilized human EphrinB2 binding to EphB2 and EphB4 with 0, 1, 10, and 100 μM concentrations of A20 salt provide good examples of how the compound can alter Eph-Ephrin protein-protein interaction dynamics. […] This indicates the effective/relative IC50 for A20 is well below 1 μM (more accurate IC50 calculations are provided below). Notwithstanding, if just the sensorgram responses for 0 and 1 μM A20 are analyzed for absolute IC50 calculations (FIG. 21B), it is clear the compound is a much stronger inhibitor of the EB2-EphB2 interaction whether assessed near the end of association step (blue star), shortly after start of dissociation step (gold star), or by AUC, as all provide absolute IC50 values −1 μM. […] For EphB2-EB2, the slope went from 20° to 10° in the presence of A20 and for EphB4-EB2 from 5° to 3°. The reduced slope later in the association step indicates the A20 compound is specifically affecting accumulation of the stable tetramer.
Addition of compound also altered dissociation kinetics. […] This is referred to as the “unsurmountable” component of the Eph-Ephrin interaction (FIG. 21C). Additionally, AUC data was graphed for these runs (FIG. 21D). […] For EB2-EphB4, the dimer:tetramer ratio was 83:8 in the presence of A20 and was not much different from the no compound control run because it is already a strong dimer-driven interaction. […] A similar though more muted effect of A20 on tetramer accumulation was also observed for the other interactions of immobilized human EphrinB binding to soluble human EphB1 and EphB2 ectodomains (FIG. 22). The inhibitory effect of A20 is strongest on the EB2-EphB2 interaction with absolute IC50 reaching 1 μM, followed by the EB2-EphB1 interaction with absolute IC50-10 μM. […] The “unsurmountable” component of the EB2-EphB1 interaction was-50% of the tetramer species (14:41) whereas that for EB2-EphB2 interaction is-30%.
Further to the experiments listed above, a series of dose-response experiments were conducted to determine the IC50 of a selected A20 chemical (A20-1) on the kinetics of human EphrinB2 ligand ectodomain protein binding to its cognate human EphB1, EphB2, and EphB4 receptor ectodomain proteins. FIG. 74A-74C are representative sensorgrams showing the effect of 0, 0.1, 0.2, 0.4, 0.8, 1.6, and 3.2 μM, concentrations of the 2×HCl salt of A20-I along with a 10 μM max standard (also A20-1) on three different Ephrin-EphB interactions (e.g., EphB1 in FIG. 74A, EphB2 in FIG. 74B and EphB4 in FIG. 74C). […]
A general note: In BLI a coated tip is dipped into the sample, and binding shifts an interference pattern.

Setting [1] is: Table B, EphrinB2-EphB1, read-out: Relative Association IC50 (300 sec).

pIC50: −log10 of the molar value. “And” between values parts separate entries of the source, which are not always exact repeats. Equal values may be shown once. Read-outs that look alike come from different tables or passages of the source.

Regarding `Oc1c(Br)cc(CN2CCN(c3ccc(Br)cc3)CC2)c2cccnc12` [Compound 30, 7-bromo-5-((4-(4-bromophenyl)piperazin-1-ium-1-yl)methyl)-8-hydroxyquinolin-1-ium chloride], the pIC50 is, setting by setting: (Table B, EphrinB2-EphB1, read-out: Absolute AUC/IC50) 6.80; (Table B, EphrinB2-EphB1, read-out: Absolute Dissociation IC50 (450 sec)) 6.48; (Table B, EphrinB2-EphB1, read-out: Relative AUC/IC50) 7.22; under setting [1], 6.82 and 5.96; (Table B, EphrinB2-EphB1, read-out: Relative Dissociation IC50 (450 sec)) 7.15.

In the case of `Oc1c(Br)cc(CN2CCOCC2)c2cccnc12` [Compound 5, 7-bromo-5-(morpholinomethyl)quinolin-8-ol], where the note is “A20 salt, read-out: absolute IC50”, the pIC50 was ~5.00. For the setting “read-out: concentration producing maximum inhibition”, the IC (maximum) turned out to be 10 µM.

In the case of `Oc1c(I)cc(CN2CCOCC2)c2cccnc12` [Compound 8, 4-((8-hydroxy-7-iodoquinolin-1-ium-5-yl)methyl)morpholin-4-ium chloride], the pIC50 under setting [1] is 5.94.
